From patent US9296741B2, “Bromodomain inhibitors” (priority 2012, dated 2016) come the findings set out here.

As usually defined, the Ki is the dissociation constant of the complex between target and ligand, obtained from inhibition or displacement. Low values mean higher affinity, high ones lower affinity.

Data set [1] concerns the target human BRD4 first bromodomain (BDI_K57-E168) (Homo sapiens (Human), UniProt O60885). The data set can be described thus: TR-FRET bromodomain binding assay, BRD4 first bromodomain. A general note: Time-resolved FRET reads energy transfer from a long-lived donor to a nearby acceptor.
Data set [2] is described as follows: Mouse liver microsome stability assay. Format: in vitro ADME. To be noted: male, CD1, mouse, microsomes, pH 7.4.
Data set [3] in a line: Human liver microsome stability assay. To be noted: both sexes, human, microsomes, pH 7.4. Format: in vitro ADME. For orientation: Microsomes from liver hold many membrane-bound enzymes, among them those of drug oxidation.
Data set [4] can be described thus: Rat liver microsome stability assay. Format: in vitro ADME. The conditions noted are these: rat liver microsomes (male Sprague-Dawley), 0.5 μM test compound, pH 7.4, 37° C.; for half-life at 0.5 μM: 0.25 mg/mL microsomal protein, read-out: Stability in rat liver microsomes (t1/2 in minutes).
Data set [5] concerns the target human BRD4 second bromodomain (BDII_E352-M457) (Homo sapiens (Human), UniProt O60885). The data set can be described thus: TR-FRET bromodomain binding assay, BRD4 second bromodomain.

The structures appear in SMILES notation.

With `Cn1cc(-c2cc(S(C)(=O)=O)ccc2Oc2cc(F)c(F)c(F)c2)c2cc[nH]c2c1=O` [Example 194, 6-methyl-4-[5-(methylsulfonyl)-2-(3,4,5-trifluorophenoxy)phenyl]-1,6-dihydro-7H-pyrrolo[2,3-c]pyridin-7-one], the results for the Ki in data set [1] and in data set [5] were 28.9 nM and 19.1 nM, respectively. Further, the half-life at 0.5 μM stood at 49 min in data set [2], 41 min in data set [3] and 38 min in data set [4].
In the same order, the values of `CCS(=O)(=O)Nc1ccc(Oc2ccc(F)cc2F)c(-c2cn(C)c(=O)c3[nH]cc(CN4CCOCC4)c23)c1` [Example 350, N-{4-(2,4-difluorophenoxy)-3-[6-methyl-3-(morpholin-4-ylmethyl)-7-oxo-6,7-dihydro-1H-pyrrolo[2,3-c]pyridin-4-yl]phenyl}ethanesulfonamide] are 1400 nM, 505 nM, 23 min, 59 min and 32 min.
Regarding `Cn1cc(-c2cc(S(C)(=O)=O)ccc2Oc2ccc3c(c2)CCC3)c2cc[nH]c2c1=O` [Example 191, 4-[2-(2,3-dihydro-1H-inden-5-yloxy)-5-(methylsulfonyl)phenyl]-6-methyl-1,6-dihydro-7H-pyrrolo[2,3-c]pyridin-7-one], the Ki in data set [1] was 17.8 nM; in data set [5], 8.8 nM. For the same compound, the half-life at 0.5 μM was 2 min in data set [2], 7 min in data set [3] and 6 min in data set [4].
Consider `Cn1cc(-c2cc(CC(=O)O)ccc2OCc2ccccc2)c2cc[nH]c2c1=O` [Example 35, [4-(benzyloxy)-3-(6-methyl-7-oxo-6,7-dihydro-1H-pyrrolo[2,3-c]pyridin-4-yl)phenyl]acetic acid], for which the Ki in data set [1] is 661 nM; in data set [5], 1140 nM. Moreover, the values for the half-life at 0.5 μM in data set [2], in data set [3] and in data set [4] were 42 min, 37 min and over 120 min, respectively.
In the same order, the values of `Cn1cc(-c2cc(C(=O)N3CCC(NC(=O)OC(C)(C)C)CC3)ccc2Oc2ccc(F)cc2F)c2cc[nH]c2c1=O` [Example 135, tert-butyl {1-[4-(2,4-difluorophenoxy)-3-(6-methyl-7-oxo-6,7-dihydro-1H-pyrrolo[2,3-c]pyridin-4-yl)benzoyl]piperidin-4-yl}carbamate] are 274 nM, 77.4 nM, 5 min, 8 min and 24 min.
In the same order, the values of `CN(C)CCNC(=O)c1ccc(Oc2ccc(F)cc2F)c(-c2cn(C)c(=O)c3[nH]ccc23)c1` [Example 131, 4-(2,4-difluorophenoxy)-N-[2-(dimethylamino)ethyl]-3-(6-methyl-7-oxo-6,7-dihydro-1H-pyrrolo[2,3-c]pyridin-4-yl)benzamide] are 98.6 nM, 60 nM, 83 min, over 120 min and 71 min.
In the same order, the values of `CN1CCC[C@H]1COc1ccc(S(C)(=O)=O)cc1-c1cn(C)c(=O)c2[nH]ccc12` [Example 222, 6-methyl-4-[2-{[(2S)-1-methylpyrrolidin-2-yl]methoxy}-5-(methylsulfonyl)phenyl]-1,6-dihydro-7H-pyrrolo[2,3-c]pyridin-7-one] are 225 nM, 969 nM, 98 min, 65 min and 80 min.
Turning to `Cn1cc(-c2cc(S(C)(=O)=O)ccc2Oc2cccc3nsnc23)c2cc[nH]c2c1=O` [Example 171, 4-[2-(2,1,3-benzothiadiazol-4-yloxy)-5-(methylsulfonyl)phenyl]-6-methyl-1,6-dihydro-7H-pyrrolo[2,3-c]pyridin-7-one], the inhibition constant Ki in data set [1] was determined as 13.8 nM; in data set [5] it was 10.3 nM. For the same compound, the values for the half-life at 0.5 μM in data set [2], in data set [3] and in data set [4] were 9 min, 15 min and 13 min, respectively.
In the same order, the values of `Cn1cc(-c2cc(S(C)(=O)=O)ccc2Oc2ccc(F)c(F)c2)c2cc[nH]c2c1=O` [Example 174, 4-[2-(3,4-difluorophenoxy)-5-(methylsulfonyl)phenyl]-6-methyl-1,6-dihydro-7H-pyrrolo[2,3-c]pyridin-7-one] are 19.2 nM, 14.3 nM, 14 min, 40 min and 46 min.
In the same order, the values of `Cn1cc(-c2cc(S(C)(=O)=O)ccc2Oc2ccc3ccncc3c2)c2cc[nH]c2c1=O` [Example 172, 4-[2-(isoquinolin-7-yloxy)-5-(methylsulfonyl)phenyl]-6-methyl-1,6-dihydro-7H-pyrrolo[2,3-c]pyridin-7-one] are 13.3 nM, 5.9 nM, 7 min, 9 min and 15 min.
Turning to `Cc1ncccc1Oc1ccc(S(C)(=O)=O)cc1-c1cn(C)c(=O)c2[nH]ccc12` [Example 179, 6-methyl-4-{2-[(2-methylpyridin-3-yl)oxy]-5-(methylsulfonyl)phenyl}-1,6-dihydro-7H-pyrrolo[2,3-c]pyridin-7-one], the Ki in data set [1] turned out to be 22.5 nM; in data set [5], 16.5 nM. The half-life at 0.5 μM in data set [2] came to 34 min; in data set [3], 80 min; in data set [4], 55 min.
As for `Cn1cc(-c2cc(C(=O)NCc3cccnc3)ccc2Oc2ccc(F)cc2F)c2cc[nH]c2c1=O` [Example 128, 4-(2,4-difluorophenoxy)-3-(6-methyl-7-oxo-6,7-dihydro-1H-pyrrolo[2,3-c]pyridin-4-yl)-N-(pyridin-3-ylmethyl)benzamide], the Ki in data set [1] worked out at 72.5 nM; in data set [5], 112 nM. Also, the half-life at 0.5 μM stood at 4 min in data set [2], 11 min in data set [3] and 21 min in data set [4].
Consider `Cn1cc(-c2ccccc2-c2ccccc2)c2cc[nH]c2c1=O` [Example 196, 4-(biphenyl-2-yl)-6-methyl-1,6-dihydro-7H-pyrrolo[2,3-c]pyridin-7-one], for which the values for the inhibition constant (Ki) in data set [1] and in data set [5] were 9500 nM and 479 nM, respectively. In addition, the half-life at 0.5 μM amounted to 3 min in data set [2], 59 min in data set [3] and 5 min in data set [4].
With `C=C(C)c1cc2c(-c3cc(S(C)(=O)=O)ccc3Oc3ccc(F)cc3F)cn(C)c(=O)c2[nH]1` [Example 291, 4-[2-(2,4-difluorophenoxy)-5-(methylsulfonyl)phenyl]-6-methyl-2-(prop-1-en-2-yl)-1,6-dihydro-7H-pyrrolo[2,3-c]pyridin-7-one], the Ki in data set [1] turned out to be 32.9 nM; in data set [5], 23.7 nM. Moreover, the half-life at 0.5 μM in data set [2] is 16 min; in data set [3], 16 min; in data set [4], 8 min.
With `CN(C)c1ccc(NC(=O)c2ccc(Oc3ccc(F)cc3F)c(-c3cn(C)c(=O)c4[nH]ccc34)c2)cc1` [Example 120, 4-(2,4-difluorophenoxy)-N-[4-(dimethylamino)phenyl]-3-(6-methyl-7-oxo-6,7-dihydro-1H-pyrrolo[2,3-c]pyridin-4-yl)benzamide], the values for the inhibition constant (Ki) in data set [1] and in data set [5] were 190 nM and 304 nM, respectively. Moreover, the figures for the half-life at 0.5 μM in data set [2], in data set [3] and in data set [4] were 10 min, 19 min and 12 min, respectively.
In the same order, the values of `CCS(=O)(=O)Nc1cc(-c2cn(C)c(=O)c3[nH]ccc23)c(Oc2ccc(F)cc2F)cc1C#N` [Example 324, N-[2-cyano-4-(2,4-difluorophenoxy)-5-(6-methyl-7-oxo-6,7-dihydro-1H-pyrrolo[2,3-c]pyridin-4-yl)phenyl]ethanesulfonamide] are 3.2 nM, 1.2 nM, over 120 min, over 120 min and over 120 min.
For the compound `Cn1cc(-c2cc(CN3CCOCC3)ccc2OCC2CC2)c2cc[nH]c2c1=O` [Example 316, 4-[2-(cyclopropylmethoxy)-5-(morpholin-4-ylmethyl)phenyl]-6-methyl-1,6-dihydro-7H-pyrrolo[2,3-c]pyridin-7-one], the half-life at 0.5 μM is 12 min in data set [2], 47 min in data set [3] and 3 min in data set [4].
In the same order, the values of `Cn1cc(-c2cc(S(C)(=O)=O)ccc2Oc2cccnc2)c2cc[nH]c2c1=O` [Example 190, 6-methyl-4-[5-(methylsulfonyl)-2-(pyridin-3-yloxy)phenyl]-1,6-dihydro-7H-pyrrolo[2,3-c]pyridin-7-one] are 8 min, 27 min and 66 min.
In the case of `CCS(=O)(=O)c1ccc(OC2CCC(=O)CC2)c(-c2cn(C)c(=O)c3[nH]ccc23)c1` [Example 199, 4-{5-(ethylsulfonyl)-2-[(4-oxocyclohexyl)oxy]phenyl}-6-methyl-1,6-dihydro-7H-pyrrolo[2,3-c]pyridin-7-one], the half-life at 0.5 μM was determined as 3 min in data set [2] and 94 min in data set [3]. The “Stability in rat liver microsomes (t1/2 in minutes)” value in data set [4] ([…] microsomal protein) was found to be 1 min.
Consider `COc1cc(Br)ccc1-c1cn(C)c(=O)c2[nH]ccc12` [Example 241, 4-(4-bromo-2-methoxyphenyl)-6-methyl-1,6-dihydro-7H-pyrrolo[2,3-c]pyridin-7-one], for which the half-life at 0.5 μM in data set [2] is 4 min; in data set [3], 39 min; in data set [4], 9 min.
